From the supplement of paper PMC10307832

Legend:
Experiment in all cases: relative viability (nuclei count vs DMSO), 5 days (fraction); higher = more cells survive
[1] = compound: COC1=CC=C(C=C1)COC2=C(C=C(C=C2)CC3=CN=C(N=C3N)N)OC [GW-2580] + CS(=O)(=O)CCNCc1ccc(-c2ccc3ncnc(Nc4ccc(OCc5cccc(F)c5)c(Cl)c4)c3c2)o1 [Lapatinib] (partner 2 µM)
Outline: (§1)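 Dosing by pin tool came one day after lung cancer cell lines were seeded in 1536-well plates, using either one drug or a fixed anchor-drug dose plus five library-drug doses (not always all listed) in √10 steps. After 5 days, nuclei were counted on 4× images. Relative viability is treated-well nuclei count divided by vehicle-well nuclei count, and values are medians of duplicate plates.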

[2] = compound: COC1=CC=C(C=C1)COC2=C(C=C(C=C2)CC3=CN=C(N=C3N)N)OC [GW-2580] + O=C(c1cc(Cc2n[nH]c(=O)c3ccccc23)ccc1F)N1CCN(C(=O)C2CC2)CC1 [Olaparib] (partner 8 µM)
Outline: as §1

[3] = compound: Cc1cnc(Nc2ccc(OCCN3CCCC3)cc2)nc1Nc1cccc(S(=O)(=O)NC(C)(C)C)c1 [Fedratinib] + COc1cccc2cc(-c3nc([C@H]4CC[C@H](C(=O)O)CC4)n4ncnc(N)c34)[nH]c12 [OSI-027] (partner 0.5 µM)
Outline: as §1

[4] = compound: Cc1cnc(Nc2ccc(OCCN3CCCC3)cc2)nc1Nc1cccc(S(=O)(=O)NC(C)(C)C)c1 [Fedratinib] + Cc1cc(Nc2cc(N3CCN(C)CC3)nc(Sc3ccc(NC(=O)C4CC4)cc3)n2)n[nH]1 [Tozasertib] (partner 0.1 µM)
Outline: as §1

[5] = compound: Cc1cnc(Nc2ccc(OCCN3CCCC3)cc2)nc1Nc1cccc(S(=O)(=O)NC(C)(C)C)c1 [Fedratinib] + Nc1nc2[nH]cc(CCc3ccc(C(=O)N[C@@H](CCC(=O)O)C(=O)O)cc3)c2c(=O)[nH]1 [Pemetrexed] (partner 0.2 µM)
Outline: as §1

[6] = compound: Cc1cnc(Nc2ccc(OCCN3CCCC3)cc2)nc1Nc1cccc(S(=O)(=O)NC(C)(C)C)c1 [Fedratinib] + Nc1ncn([C@H]2C[C@H](O)[C@@H](CO)O2)c(=O)n1 [Decitabine] (partner 2 µM)
Outline: as §1

| Cell Line | relative viability ([1]; first compound 0.08 µM) | relative viability ([1]; first compound 0.8 µM) | relative viability ([1]; first compound 2.53 µM) | relative viability ([1]; first compound 8 µM) | relative viability ([2]; first compound 0.08 µM) | relative viability ([2]; first compound 0.8 µM) | relative viability ([2]; first compound 2.53 µM) | relative viability ([2]; first compound 8 µM) | relative viability ([3]; first compound 0.1 µM) | relative viability ([3]; first compound 0.3162 µM) | relative viability ([3]; first compound 1 µM) | relative viability ([4]; first compound 0.1 µM) | relative viability ([4]; first compound 0.3162 µM) | relative viability ([4]; first compound 1 µM) | relative viability ([5]; first compound 0.1 µM) | relative viability ([5]; first compound 0.3162 µM) | relative viability ([5]; first compound 1 µM) | relative viability ([6]; first compound 0.1 µM) | relative viability ([6]; first compound 0.3162 µM) | relative viability ([6]; first compound 1 µM) |
| --- | --- | --- | --- | --- | --- | --- | --- | --- | --- | --- | --- | --- | --- | --- | --- | --- | --- | --- | --- | --- |
| HCC-44 | 1.12 | 1.06 | 0.923 | 1.04 | 1.04 | 1.05 | 1.04 | 1.03 | 0.482 | 0.544 | 0.362 | 0.258 | 0.843 | 0.805 | 0.646 | 0.638 | 0.68 | 0.929 | 0.947 | 0.949 |
| HCC-78 | 0.917 | 1.37 | 0.439 | 0.752 | 0.818 | 0.919 | 0.757 | 0.861 | 0.366 | 0.381 | 0.362 | 0.402 | 0.36 | 0.392 | 0.963 | 0.838 | 0.881 | 0.693 | 0.73 | 0.705 |
| HCC-366 | 1.08 | 1.02 | 0.977 | 1.19 | 0.379 | 0.526 | 0.387 | 0.417 | 0.802 | 0.886 | 0.849 | 0.0591 | 0.123 | 0.072 | 0.154 | 0.168 | 0.142 | 0.29 | 0.307 | 0.366 |
| HCC-827 | 0.225 | 0.211 | 0.167 | 0.152 | 0.692 | 0.642 | 0.632 | 0.617 | 0.817 | 0.812 | 0.915 | 0.345 | 0.387 | 0.409 | 0.233 | 0.271 | 0.256 | 0.292 | 0.336 | 0.318 |
| HOP-62 | 0.856 | 0.986 | 0.997 | 1.12 | 0.512 | 0.809 | 0.179 | 0.402 | 0.849 | 0.647 | 0.719 | 0.289 | 0.362 | 0.358 | 0.26 | 0.244 | 0.322 | 0.224 | 0.172 | 0.202 |
| IA-LM | 0.997 | 0.862 | 0.572 | 0.876 | 0.844 | 1 | 0.853 | 0.756 |  |  |  |  |  |  |  |  |  |  |  |  |
| LC-2-ad | 1.14 | 0.982 | 0.992 | 0.896 | 0.723 | 0.727 | 0.702 | 0.722 | 0.854 | 0.94 | 0.609 | 0.335 | 0.423 | 0.41 | 0.284 | 0.267 | 0.277 | 0.902 | 0.776 | 0.741 |
| LCLC-103H |  |  |  |  | 0.799 | 0.895 | 0.733 | 0.736 | 0.415 | 0.454 | 0.404 | 0.304 | 0.524 | 0.381 | 0.487 | 0.521 | 0.469 | 0.725 | 0.734 | 0.703 |
| NCI-H441 |  |  |  |  | 0.644 | 0.582 | 0.555 | 0.585 | 0.443 | 0.625 | 0.511 | 0.412 | 0.538 | 0.575 | 0.267 | 0.242 | 0.232 | 0.223 | 0.218 | 0.233 |
| NCI-H522 |  |  |  |  | 0.623 | 0.608 | 0.611 | 0.602 | 0.629 | 0.825 | 0.566 | 0.527 | 0.514 | 0.573 | 0.767 | 0.951 | 0.902 | 0.634 | 0.698 | 0.668 |
| NCI-H727 | 0.792 | 1.04 | 0.735 | 0.791 | 0.637 | 0.63 | 0.699 | 0.69 | 0.504 | 0.674 | 0.534 | 0.493 | 0.823 | 0.656 |  |  |  | 0.864 | 0.792 | 0.874 |
| NCI-H1299 | 1.04 | 0.979 | 0.959 | 0.886 | 1.05 | 0.965 | 0.922 | 0.876 |  |  |  |  |  |  |  |  |  |  |  |  |
| NCI-H1563 | 0.895 | 0.857 | 0.831 | 0.863 |  |  |  |  | 0.742 | 0.812 | 0.754 |  |  |  | 0.737 | 0.624 | 0.824 |  |  |  |
| NCI-H1623 |  |  |  |  |  |  |  |  | 0.438 | 0.48 | 0.38 | 0.414 | 0.486 | 0.397 |  |  |  |  |  |  |
| NCI-H1648 |  |  |  |  | 1.34 |  | 0.666 | 0.764 | 0.221 | 0.263 | 0.269 | 0.409 | 0.567 | 0.422 | 0.598 | 0.675 | 0.328 | 0.473 | 0.51 | 0.443 |
| NCI-H1703 | 1.1 | 1.32 | 1.2 | 0.946 | 0.418 | 0.43 | 0.412 | 0.363 |  |  |  |  |  |  |  |  |  |  |  |  |
| NCI-H1792 | 0.936 | 1.1 | 0.484 | 1.1 | 0.596 | 0.929 | 0.255 | 0.44 | 0.607 | 0.808 | 0.748 |  |  |  | 0.784 | 0.67 | 0.597 | 0.429 | 0.438 | 0.504 |
| NCI-H2228 | 0.893 | 1.28 | 1.38 | 1.02 | 0.667 | 0.828 | 0.785 | 0.635 | 0.62 | 0.507 | 0.482 | 0.188 | 0.221 | 0.227 | 0.331 | 0.284 | 0.294 |  |  |  |
| NCI-H2342 |  |  |  |  | 0.397 | 0.59 | 0.382 | 0.382 | 0.615 | 0.65 | 0.559 | 0.51 | 0.713 | 0.695 | 0.801 | 0.765 | 0.775 | 0.753 | 0.759 | 0.745 |
| SW 900 |  |  |  |  | 0.864 | 1.03 | 0.994 | 0.747 | 0.522 | 0.539 | 0.35 | 0.358 | 0.502 | 0.434 | 0.466 | 0.525 | 0.444 | 0.399 | 0.425 | 0.516 |
